From patent publication US11957757B2, “Method for preparing stabilized metal ion ligand nanocomplex and compositions thereof” (AUBURN UNIVERSITY, priority 2017, dated 2024) come the findings set out here.

For assay [1], the system named is DU145-TXR drug-resistant prostate cancer cells. In words: MTT cytotoxicity assay, DU145-TXR cells. The format is cell-based. The settings on record: for cell toxicity: equivalent concentrations, 48 hours. On the procedure: Cells were cultured at 37° C. in a humidified atmosphere containing 5% CO2. […] Cytotoxicity was calculated using the following equation: Cell Viability (%)=(ATest/Acontrol)×100%. Furthermore, IC50 was calculated with SigmaPlot software based on a dose-response curve.
Background: Tetrazolium dyes change colour on reduction, which living cells bring about.

Assay [2] relates to DU145-TXR cells. The assay is described as follows: Intracellular ROS, H2DCFDA dye method. It is filed as cell-based. Conditions: 100 μM, positive control. The method, then:
The generation of ROS was determined with a 2′,7′-dichlorodihydrofluorescein diacetate (H2DCFDA) dye method. Briefly, cells were seeded in a dark-walled, clear-bottomed 96-well plate with 50,000 cells per well and incubated at 37° C. overnight before study. Cells were incubated with 20 μM H2DCFDA in Hank's Buffered Salt Solution (HBSS, pH=7.4) for 30 minutes at 37° C. in the dark, and treated with different formulations.

Assay [3] concerns DU145-TXR cells. The assay is described as follows: Endoplasmic reticulum (ER) staining. Conditions: 0.5 μM, 8 hours.

Usually IC50 stands for the point on the concentration scale where inhibition reaches its midpoint.

For `CCN(CC)C(=S)S` [DDC-Na, sodium diethyldithiocarbamatetrihydrate], in assay [1], the cell toxicity entry was “did not show significant cell toxicity”.

Take `[Cl][Cu][Cl]` [CuCl2, copper chloride]: the cell toxicity result in assay [1] is “did not show significant cell toxicity”. For `OO` [H2O2], the ROS level entry in assay [2] is recorded as “increased”. `CC(=O)O[C@H]1C(=O)[C@@]2(C)[C@H]([C@H](OC(=O)c3ccccc3)[C@]3(O)C[C@H](OC(=O)[C@H](O)[C@@H](NC(=O)c4ccccc4)c4ccccc4)C(C)=C1C3(C)C)[C@]1(OC(C)=O)CO[C@@H]1C[C@@H]2O` [paclitaxel]: the “ER structure (ER-specific dye staining)” value in assay [3] is listed as “typical reticulate structure”. In assay [1] (48 hours of treatment), this molecule came in with a concentration for half-maximal inhibition (IC50) of 2580 nM.
